Results on three compounds are retold here after ChEMBL document CHEMBL3233002, “Discovery of potent Keap1-Nrf2 protein-protein interaction inhibitor based on molecular binding determinants analysis” (J Med Chem, 2014).

The target in data set [1] is Kelch-like ECH-associated protein 1 (Homo sapiens) (UniProt Q14145). In words: Inhibition of Keap1-Nrf2 interaction in human HepG2-ARE-C8 cells assessed as activation of Nrf2-ARE luciferase activity at 20 uM after 12 hrs relative to control. The data set is classed as cell-based.
The test system of a further data set is HCT-116. In words: Cytotoxicity against human HCT116 cells at 10 uM. The data set is classed as cell-based. To be noted: hct-116, 10 µM.
A short description of data set [2]: Partition coefficient, log D of the compound at pH 7.4. To be noted: octanol/water. The data set is classed as physicochemical.
Data set [3] is described as follows: Dissociation constant, pKa of the compound. The data set is classed as physicochemical.
Data set [4] has as its target Kelch-like ECH-associated protein 1 (Homo sapiens) (UniProt Q14145). In words: Inhibition of Keap1-Nrf2 interaction in human HepG2-ARE-C8 cells assessed as activation of Nrf2-ARE luciferase activity at 40 uM after 12 hrs relative to control. Format: cell-based.
Data set [5] has the same target. In words: Inhibition of Keap1-Nrf2 interaction in human HepG2-ARE-C8 cells assessed as activation of Nrf2-ARE luciferase activity at 80 uM after 12 hrs relative to control. The data set is classed as cell-based.

Sequence of Kelch-like ECH-associated protein 1 (Homo sapiens) (Q14145 whole entry): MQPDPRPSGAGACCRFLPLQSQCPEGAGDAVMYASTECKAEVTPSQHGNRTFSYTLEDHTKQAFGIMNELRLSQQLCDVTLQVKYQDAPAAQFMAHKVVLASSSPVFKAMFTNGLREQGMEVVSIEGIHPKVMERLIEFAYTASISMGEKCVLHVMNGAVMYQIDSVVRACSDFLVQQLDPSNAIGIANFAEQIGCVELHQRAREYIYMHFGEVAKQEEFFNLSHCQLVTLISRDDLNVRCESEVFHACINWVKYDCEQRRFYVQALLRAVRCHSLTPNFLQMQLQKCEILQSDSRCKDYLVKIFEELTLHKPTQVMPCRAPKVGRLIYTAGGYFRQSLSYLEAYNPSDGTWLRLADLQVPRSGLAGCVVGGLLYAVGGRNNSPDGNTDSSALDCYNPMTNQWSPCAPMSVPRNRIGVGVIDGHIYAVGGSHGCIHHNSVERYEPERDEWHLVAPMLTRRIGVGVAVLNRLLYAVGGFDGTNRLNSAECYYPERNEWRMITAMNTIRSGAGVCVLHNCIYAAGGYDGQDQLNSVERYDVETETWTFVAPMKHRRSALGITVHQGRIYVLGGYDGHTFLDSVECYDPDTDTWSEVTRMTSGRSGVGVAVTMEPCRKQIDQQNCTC

For `C[S+]([O-])CCCCN=C=S` (configuration not stated), the fold change (FC) in data set [1] turned out to be 18.1.
With `COc1ccc(S(=O)(=O)N(CC(=O)O)c2ccc(N(CC(=O)O)S(=O)(=O)c3ccc(OC)cc3)c3ccccc23)cc1`, the Activity result with HCT-116 is reported as “Non-toxic”. This compound also came in with a logD in data set [2] of 1.71. Besides, the pKa in data set [3] was found to be 4.62.
In the case of `CC(C)(C)c1cc(O)ccc1O`, the fold change (FC) was found to be 2.22 in data set [1], 3.81 in data set [4] and 6.21 in data set [5].
